Assay: xn = mol fraction of the nth substance listed

ClC(Cl)(Cl)Cl + CC(C)O
313.15 K, 101.33 kPa
Conditions	viscosity [mPa·s]
x2 = 0.115	0.7291
x2 = 0.22	0.7336
x2 = 0.325	0.7548
x2 = 0.421	0.7812
x2 = 0.5	0.8175
x2 = 0.602	0.8746
x2 = 0.685	0.9355
x2 = 0.745	0.9868
x2 = 0.879	1.145

CCCC(C)=O + CCCCN
303.15 K, 101.33 kPa
Conditions	viscosity [mPa·s]
x2 = 0.1	0.608
x2 = 0.1974	0.752
x2 = 0.3754	0.936
x2 = 0.5189	1.023
x2 = 0.6418	1.061
x2 = 0.7158	0.949
x2 = 0.8252	0.825
x2 = 0.8978	0.709

CCN(CC)CC + Cc1ccccc1
303.15 K, 101 kPa
Conditions	viscosity [mPa·s]
x1 = 0.01196	0.5137
x1 = 0.02231	0.5093
x1 = 0.03105	0.5049
x1 = 0.04186	0.4993
x1 = 0.04881	0.4963
x1 = 0.0617	0.4911
x1 = 0.0685	0.4859
x1 = 0.07915	0.4823
x1 = 0.09159	0.4786
x1 = 0.1002	0.4755

ClC(Cl)(Cl)Cl + COc1ccccc1
viscosity [mPa·s], 101 kPa
Conditions	x2 = 0.105	x2 = 0.2013	x2 = 0.3026	x2 = 0.3956	x2 = 0.5023	x2 = 0.5968	x2 = 0.699	x2 = 0.797	x2 = 0.8998
298.15 K	0.9408	0.9425	0.9493	0.9547	0.9644	0.9745	0.9834	0.9896	0.9961
303.15 K	0.8895	0.8842	0.8852	0.8927	0.9013	0.9054	0.9147	0.919	0.926
308.15 K	0.8268	0.8263	0.8279	0.8326	0.8397	0.8446	0.8502	0.8547	0.858
313.15 K	0.7762	0.7751	0.7851	0.7777	0.7837	0.7864	0.7919	0.7946	0.7981

CCN(CC)CC + CCCCO
303.15 K, 101 kPa
Conditions	viscosity [mPa·s]
x1 = 0.01087	2.223
x1 = 0.02221	2.193
x1 = 0.0326	2.162
x1 = 0.04176	2.133
x1 = 0.05247	2.098
x1 = 0.06249	2.076
x1 = 0.07262	2.052
x1 = 0.08419	2.019
x1 = 0.09512	1.991

ClC(Cl)(Cl)Cl + C[N+](=O)[O-]
Conditions	viscosity [mPa·s]
298 K, 101.3 kPa, x1 = 0.0959	0.636
298 K, 101.3 kPa, x1 = 0.1961	0.655
298 K, 101.3 kPa, x1 = 0.3609	0.702
298 K, 101.3 kPa, x1 = 0.5088	0.751
298 K, 101.3 kPa, x1 = 0.7487	0.805
298.15 K, 101 kPa, x2 = 0.1023	0.884
298.15 K, 101 kPa, x2 = 0.1662	0.8265
298.15 K, 101 kPa, x2 = 0.2011	0.8405
298.15 K, 101 kPa, x2 = 0.2958	0.8074
298.15 K, 101 kPa, x2 = 0.3102	0.7692
298.15 K, 101 kPa, x2 = 0.3946	0.7776
298.15 K, 101 kPa, x2 = 0.4351	0.7285
298.15 K, 101 kPa, x2 = 0.4978	0.7481
298.15 K, 101 kPa, x2 = 0.5452	0.6969
298.15 K, 101 kPa, x2 = 0.6013	0.7175
298.15 K, 101 kPa, x2 = 0.6424	0.6735
298.15 K, 101 kPa, x2 = 0.701	0.6857
298.15 K, 101 kPa, x2 = 0.7297	0.6556
298.15 K, 101 kPa, x2 = 0.799	0.6627
298.15 K, 101 kPa, x2 = 0.8077	0.6427
298.15 K, 101 kPa, x2 = 0.878	0.6339
298.15 K, 101 kPa, x2 = 0.9009	0.6481
298.15 K, 101 kPa, x2 = 0.9419	0.6295
303.15 K, 101 kPa, x2 = 0.1	0.7718
303.15 K, 101 kPa, x2 = 0.1023	0.8319
303.15 K, 101 kPa, x2 = 0.2	0.7427
303.15 K, 101 kPa, x2 = 0.2011	0.7922
303.15 K, 101 kPa, x2 = 0.2958	0.7599
303.15 K, 101 kPa, x2 = 0.3	0.7058
303.15 K, 101 kPa, x2 = 0.3946	0.735
303.15 K, 101 kPa, x2 = 0.4	0.6831
303.15 K, 101 kPa, x2 = 0.4978	0.7052
303.15 K, 101 kPa, x2 = 0.5	0.6569
303.15 K, 101 kPa, x2 = 0.6	0.6415
303.15 K, 101 kPa, x2 = 0.6013	0.6783
303.15 K, 101 kPa, x2 = 0.7	0.624
303.15 K, 101 kPa, x2 = 0.701	0.6511
303.15 K, 101 kPa, x2 = 0.799	0.6308
303.15 K, 101 kPa, x2 = 0.8	0.6126
303.15 K, 101 kPa, x2 = 0.9	0.6123
303.15 K, 101 kPa, x2 = 0.9009	0.6177
308.15 K, 101 kPa, x2 = 0.1	0.7423
308.15 K, 101 kPa, x2 = 0.1023	0.7884
308.15 K, 101 kPa, x2 = 0.2	0.6974
308.15 K, 101 kPa, x2 = 0.2011	0.7475
308.15 K, 101 kPa, x2 = 0.2958	0.7146
308.15 K, 101 kPa, x2 = 0.3	0.668
308.15 K, 101 kPa, x2 = 0.3946	0.6899
308.15 K, 101 kPa, x2 = 0.4	0.6479
308.15 K, 101 kPa, x2 = 0.4978	0.6672
308.15 K, 101 kPa, x2 = 0.5	0.626
308.15 K, 101 kPa, x2 = 0.6	0.6063
308.15 K, 101 kPa, x2 = 0.6013	0.6432
308.15 K, 101 kPa, x2 = 0.7	0.5927
308.15 K, 101 kPa, x2 = 0.701	0.6169
308.15 K, 101 kPa, x2 = 0.799	0.5981
308.15 K, 101 kPa, x2 = 0.8	0.5834
308.15 K, 101 kPa, x2 = 0.9	0.5735
308.15 K, 101 kPa, x2 = 0.9009	0.5901
313.15 K, 101 kPa, x2 = 0.1023	0.7324
313.15 K, 101 kPa, x2 = 0.2011	0.6952
313.15 K, 101 kPa, x2 = 0.2958	0.674
313.15 K, 101 kPa, x2 = 0.3946	0.648
313.15 K, 101 kPa, x2 = 0.4978	0.6232
313.15 K, 101 kPa, x2 = 0.6013	0.6053
313.15 K, 101 kPa, x2 = 0.701	0.5841
313.15 K, 101 kPa, x2 = 0.799	0.5675
313.15 K, 101 kPa, x2 = 0.9009	0.5621
318 K, 101.3 kPa, x1 = 0.0897	0.5256
318 K, 101.3 kPa, x1 = 0.1941	0.5442
318 K, 101.3 kPa, x1 = 0.3589	0.5822
318 K, 101.3 kPa, x1 = 0.5073	0.6189
318 K, 101.3 kPa, x1 = 0.7644	0.6719
318.15 K, 101 kPa, x2 = 0.1	0.6487
318.15 K, 101 kPa, x2 = 0.2	0.6201
318.15 K, 101 kPa, x2 = 0.3	0.5962
318.15 K, 101 kPa, x2 = 0.4	0.5782
318.15 K, 101 kPa, x2 = 0.5	0.5609
318.15 K, 101 kPa, x2 = 0.6	0.546
318.15 K, 101 kPa, x2 = 0.7	0.5328
318.15 K, 101 kPa, x2 = 0.8	0.5246
318.15 K, 101 kPa, x2 = 0.9	0.5207

ClC(Cl)(Cl)Cl + Clc1ccccc1
298.15 K, 101 kPa
Conditions	viscosity [mPa·s]
x2 = 0.2	0.844
x2 = 0.4	0.81
x2 = 0.6	0.787
x2 = 0.8	0.769
